Test results taken from paper PMC6562610, “Inhibition of Hedgehog Signaling in Fibroblasts, Pancreatic, and Lung Tumor Cells by Oxy186, an Oxysterol Analogue with Drug-Like Properties” (Cells, 2019).

What was measured:
[1] = system: endogenous Gli activity in Sufu-/- cells; experiment: Gli responsive luciferase reporter in Sufu-/- cells; type: cell-based, mouse; settings: 10 µM, 72 h
Procedure: (§1) NIH3T3-E1 and Sufu^−/− cells cultured in 24-well plates at 90% confluence were transiently transfected with 0.1 µg of Gli response-element reporter (pGL3b-8xGli-Luciferase) plasmid, and 10 ng of pTK-Renilla-Luciferase plasmid with or without co-transfection with 10 ng of Gli1 overexpression vector, pSRα-Gli1, as previously described using Lipofectamine LTX Plus transfection reagent (Invitrogen). Twenty-four h after transfection, cells were treated with test agents for 72 h. Then the firefly and Renilla luciferase activities were measured using a dual luciferase kit (Promega, Madison, WI, USA) and a GloMax-96 Microplate Luminometer. The firefly luciferase activities were normalized to the Renilla luciferase activities. Data are reported as the mean of triplicate determinations ± SD.
(§2) Figure 5 Oxy186 acts downstream of Smo. (a) Sufu^−/− mouse embryonic fibroblast (MEF) cells were treated with DMEM containing 10% FBS in the presence or absence of Oxy186 (10 µM). After 72 h, RNA was extracted and analyzed by Q-RT-PCR for the expression of Hh target genes Gli1, Ptch1, and Hip, normalized to Oaz1 expression. […] Luciferase activity was measured and normalized to the Renilla luciferase activity. […]

[2] = system: Gli1 expression in PANC-1 cells; experiment: Inhibition of baseline Gli1 expression in PANC-1 cells, Q-RT-PCR; type: cell-based, human; settings: 10 µM, 48 h
Text: NIH3T3-E1 fibroblasts were obtained from ATCC (Manassas, VA) and cultured, as previously described. CAPAN-1 and PANC-1 human pancreatic cancer cells were obtained from ATCC and cultured in Dulbecco’s Modified Eagle Medium (DMEM) containing 10% heat-inactivated fetal bovine serum (FBS) (Hyclone Laboratories, Logan, UT, USA) and antibiotics, as previously described. The human lung cancer cell lines A549 and H2030 were obtained from ATCC and cultured in RPMI-1640 containing 10% FBS. The human hepatoma cell line HepG2 was obtained from ATCC and cultured in DMEM containing 10% FBS. Mouse embryonic fibroblasts (MEFs) from suppressor of fused (Sufu) null mice (Sufu^−/−) were provided by Dr. Philip Beachy of Stanford University and cultured in DMEM containing 10% FBS. Gant61, SB431542 and vismodegib (GDC0449) were obtained from Cayman Chemical, HPI-1 was obtained from Abcam. For experiments, cells were treated in a medium containing 5% FBS.
Total RNA was extracted with the RNeasy Plus Mini Kit from Qiagen, according to the manufacturer’s instructions. One microgram of RNA was reverse-transcribed using an iScript Reverse Transcription Supermix from Bio-Rad, to make single-stranded cDNA. The cDNAs were then mixed with Qi SYBR Green Supermix (Bio-Rad, Hercules, CA, USA) for quantitative RT-PCR assay using a Bio-Rad I-cycler IQ quantitative thermocycler. All PCR samples were prepared in triplicate wells in a 96-well plate. […] Fold changes in gene expression were calculated using the ΔΔCt method. […]
Figure 4 Inhibition of Gli and Shh expression in (a) PDAC (PANC-1) and (b,c) human lung cancer cells (A549 and H2030, respectively) by Oxy186. Cells were treated with the compounds as indicated in DMEM or RPMI 1640 containing 5% FBS for (a) 48 or (b,c) 72 hours, then RNA was extracted and analyzed by Q-RT-PCR for the expression of Gli1 and normalized to GAPDH expression. (d) CAPAN-1 cells were treated with the compounds, as indicated, in DMEM containing 5% FBS for 72 h, then RNA was extracted and analyzed by Q-RT-PCR for the expression of Shh and normalized to GAPDH expression. […]

[3] = system: Gli1 transcriptional activity in NIH3T3-E1 cells; experiment: Gli responsive luciferase reporter trans-activated by exogenous Gli1; type: cell-based, mouse; settings: 72 h
Procedure: as §1, §2

LXR target gene Abca1 = experiment: Induction of LXR target gene Abca1 in NIH3T3 cells, Q-RT-PCR; type: cell-based, mouse
Procedure: Total RNA was extracted with the RNeasy Plus Mini Kit from Qiagen, according to the manufacturer’s instructions. One microgram of RNA was reverse-transcribed using an iScript Reverse Transcription Supermix from Bio-Rad, to make single-stranded cDNA. The cDNAs were then mixed with Qi SYBR Green Supermix (Bio-Rad, Hercules, CA, USA) for quantitative RT-PCR assay using a Bio-Rad I-cycler IQ quantitative thermocycler. All PCR samples were prepared in triplicate wells in a 96-well plate. After 40 cycles of PCR, melt curves were examined in order to ensure primer specificity. Fold changes in gene expression were calculated using the ΔΔCt method. Primers used for mouse were as follows: Oaz1 (5’-CCACTGCTTCGCCAGAGAG-3’) and (5’-CCCGGACCCAGGTTACTA-3’), Gli1 (5’-[…]-3’ and 5’-[…]-3’), Ptch1 (5’-CCATCGGCGACAAGAACC-3’ and 5’-[…]-3’), Hip (5’-[…]-3’ and 5’-[…]-3’), and Abca1 (5’-[…]-3’ and 5’-[…]-3’). Primers used for human were as follows: SREBP1c (5’-CGCTCCTCCATCAATGACA-3’ and 5’-[…]-3’), GAPDH (5’-[…]-3’ and 5’-[…]-3’), SHH (5’-CGGAGCGAGGAAGGGAAAG-3’) and (5’-[…]-3’), and GLI1 (5’-GAAGCCGAGCCGAGTATC-3’ and 5’-[…]-3’).
Figure 7 Induction of LXR target gene expression by Oxy186 and LXR agonist TO901317 (TO). (a) NIH3T3 cells and (b) HepG2 cells were treated with DMEM containing 5% FBS in the presence or absence of TO (2 µM) or Oxy186 (10 µM). […] Data from a representative experiment are reported as the mean of triplicate determinations ± SD (** p < 0.01 vs. control).

[4] = Metabolic stability in human liver microsomes; type: in vitro ADME

SMILES: C[C@]12CC[C@H](O)C[C@@H]1CC[C@@H]1[C@@H]2CC[C@@]2(C)[C@H]1CC[C@@H]2[C@](C)(O)CCc1ccc(F)cc1 [Oxy186, (3S,5S,8R,9S,10S,13S,14S,17S)-17-((R)-4-(4-fluorophenyl)-2-hydroxybutan-2-yl)-10,13-dimethylhexadecahydro-1H-cyclopenta[a]phenanthren-3-ol]
- Inhibition of Gli responsive luciferase reporter activity (endogenous Gli) [1]: significantly inhibited
- Inhibition of high baseline expression of Gli1 [2]: significantly inhibited
- Inhibition of Gli responsive luciferase reporter trans-activated by over expressed exogenous Gli1 [3]: significantly inhibited
- LXR agonism (Figure 8b summary) (LXR target gene Abca1; Figure 8b drug-like properties summary): Weak LXR agonist
- Induction of expression of LXR target gene Abca1 (LXR target gene Abca1; NIH3T3-E1 cells, up to 10 µM): only modestly induced
- HLM, Half-Life [4]: 45 min
- remaining at 1 h ([4]; 60 min, read-out: HLM, % Remaining after 60 min): 40%
- half-life ([4]; human, liver microsomes, read-out: HLM, Half-Life): 43 min
